The values below come from patent US20170049781A1, “HSP90 INHIBITOR COMBINATIONS” (Novartis AG, priority 2008, published 2017).

Holding throughout (type): cell-based, human
Test [1] concerns phosphorylated AKT (P-AKT(S473) and P-AKT(T308)). The experiment in a line: Western blot of AKT phosphorylation in BT474 breast tumor cells. The procedure: (§1) Two cancer derived cell lines are used (BT474 and MDA-MB-231). These are human breast carcinoma cell lines. The cell lines are commercially available from American Type Culture Collection (ATCC). BT474 cells are maintained in Hybri-Care medium (ATCC) supplemented with 10% v/v fetal calf serum and 2 mM L-glutamine. MDB-MB-231 cells are grown in RPMI 1640 medium (Animed, Allschwil, Switzerland) supplemented with 10% v/v fetal calf serum and 2 mM L-glutamine. The media are supplemented with 100 microgramm/ml penicillin/streptomycin and cells are maintained at 37° C. in 5% CO2.
(§2) After division and medium change, cells from stock culture are seeded at a density of 3.3×10^4 cells/cm^2 (BT474) and 1.2×10^4 cells/cm^2 (MDB-MB-231) on cell plates and incubated for 48 hours at 37° C. and 5% CO2 prior to the treatment with DMSO vehicle, 20 nM everolimus (RAD001) and/or various concentrations of AUY922 (compound 1) for 24 hours. To prepare cell lysates culture plates are washed once with ice-cold phosphor buffered saline (PBS) containing 1 mM phenylmethylsulfonyl fluoride (PMSF) and once with ice-cold extraction buffer (50 mM Hepes pH 7.4, 150 mM NaCl, 25 mM beta-glycerophosphate, 25 mM NaF, 5 mM EGTA, 1 mM EDTA, 15 mM PPi, 2 mM sodium orthovanadate, 10 mM sodium molybdate, leupeptin (10 microgramm/ml), aprotinin (10 microgramm/ml), 1 mM DTT and 1 mM PMSF. Cells are extracted in the same buffer, containing 1% NP-40. The extracts are homogenized, cleared by centrifugation, aliquoted and frozen at −80° C. Protein concentration is determined with the BCA Protein Assay (Pierce, Rockford, Ill., USA).
(§3) Twenty micrograms of cell extracts are resolved electrophoretically on 12% denaturing sodium dodecyl sulfate polyacrylamide gels (SDS-PAGE) and transferred to polyvinylidene difluoride filters by wet-blotting (1 hour at 250 mA) and probed overnight at 4° C. with the following primary antibodies:
(§4) anti-phospho-Akt (Ser473) (clone 14-05; 1:2000) obtained from DAKO (Glostrup, Denmark) and diluted in PBS, 0.5% v/v Tween. […]

Test [2] deals with phosphorylated AKT (P-AKT(S473), T308). The experiment in a line: Western blot of AKT phosphorylation in MDA-MB-231 breast tumor cells. The note with it: MDA-MB-231 cells. The procedure: as §1, §2, §3, §4
A further test relates to AKT. The experiment in a line: Western blot of AKT levels in MDA-MB-231 breast tumor cells. To be noted: MDA-MB-231 cells, 100 nM Compound I. The procedure: as §1
After division and medium change, cells from stock culture are seeded at a density of 3.3×10^4 cells/cm^2 (BT474) and 1.2×10^4 cells/cm^2 (MDB-MB-231) on cell plates and incubated for 48 hours at 37° C. and 5% CO2 prior to the treatment with DMSO vehicle, 20 nM everolimus (RAD001) and/or various concentrations of AUY922 (compound 1) for 24 hours. […]

Take `CO[C@H]1C[C@@H]2CC[C@@H](C)[C@@](O)(O2)C(=O)C(=O)N2CCCC[C@H]2C(=O)O[C@H]([C@H](C)C[C@@H]2CC[C@@H](OCCO)[C@H](OC)C2)CC(=O)[C@H](C)/C=C(\C)[C@@H](O)[C@@H](OC)C(=O)[C@H](C)C[C@H](C)/C=C/C=C/C=C/1C` [RAD001, 40-O-(2-hydroxyethyl)-rapamycin]: the “AKT phosphorylation (P-AKT(S473) and P-AKT(T308)) on addition of RAD001 in the presence of compound I” value in test [1] (BT474 cells, 20 nM RAD001 in the presence of 50-100 nM compound I (combination)) is on record as “did not cause increase in AKT phosphorylation”. Moreover, in test [1] (BT-474 cells, 20 nM RAD001, 24 hours), the “levels of phosphorylated AKT (P-AKT(S473) and P-AKT(T308)) compared to an untreated control” value is recorded as “increased levels of phosphorylated AKT”. In addition, the “levels of phosphorylated AKT (P-AKT(S473)) compared to an untreated control” value in test [2] (20 nM RAD001, 24 hours) was “increased levels of phosphorylated AKT”. Further, in test [2] (20 nM RAD001 in the presence of 50-100 nM compound I (combination)), the “phosphorylation of AKT at amino acid residue T308 on addition of RAD001 in the presence of compound I” value was “did not cause increased phosphorylation of AKT”.
For the compound `COc1cccc(-c2ccccc2[C@H]2Cc3nc(N)nc(C)c3C(=O)N2)n1` [compound I, (R)-2-amino-7-[2-(6-methoxy-pyridin-2-yl)-phenyl]-4-methyl-7,8-dihydro-6H-pyrido[4,3-d]pyrimidin-5-one], in test [1] (BT474 cells, 50-100 nM compound I, 24 hours), the “AKT phosphorylation (P-AKT(S473) and P-AKT(T308))” value is “diminished”. In addition, the “AKT phosphorylation (P-AKT(S473))” value in test [2] (50-100 nM compound I, 24 hours) is recorded as “diminished”. In addition, the AKT levels result with AKT is “slightly decreased”.
